The target of data set [1] is T1, CRP (Escherichia coli, UniProt P0ACJ8).
T1 construct: made in house; host or cells: E. coli
The data set is described as follows: EMSA in vitro DNA binding by CRP. In kind it is biochemical, E. coli. The conditions noted are these: 1.3 mM compound. The source says:
All proteins for this study were expressed in E. coli. Untagged CRP was purified by Ni^2+-affinity chromatography as described. Lad protein was purified by ammonium sulfate precipitation and phosphocellulose column chromatography as described. RhaS-GB1^201b and GB1^b-RhaR were purified by Ni^2+-affinity chromatography. Briefly, plasmids derived from pET21 and expressing RhaS-GB1^201b and GB1^b-RhaR were transformed into competent cells of strains Acella™ (MoBiTec, Gottingen, Germany) or ArcticExpress(DE3) (Agilent Technologies, Santa Clara Calif.), respectively. The cells were grown in 1 liter TY plus ampicillin and rhamnose. Gentamycin was also added for GB1^b-RhaR. The cells were grown to OD600 of 0.5, transferred to a 15° C. shaker, 0.1 mM IPTG was added, and then incubated overnight. Cells were harvested by centrifugation and then resuspended in 30 mL of cold binding buffer (20 mM Tris, 500 mM NaCl, 5 mM imidazole, pH 7.9) plus L-rhamnose. […]
IRD700- and DY682-labeled oligos were from Eurofins MWG Operon. […] EMSA gels were imaged using an Odyssey infrared imager (LI-COR, Lincoln, Nebr.), and quantified using the Odyssey software, version 3.0.30. […] Inhibition values were calculated and graphs were drawn as for in vivo dose-response experiments.
A general note: In EMSA bound probe runs differently from free probe, usually more slowly.

Data set [2] has as its system L-929 cells. The data set is described as follows: AlamarBlue metabolic activity / viability assay. In kind it is cell-based, mouse. Here is the method:
AlamarBlue® assays were performed as a control to test whether SE-1 had any impact on the metabolic activity of the host cells, as follows: L-929 cells were seeded into 96-well plates and grown overnight to ˜90% confluency. SE-1 was serially diluted in RPMI supplemented with 10 μg/ml gentamycin and 5% FBS, added to the wells, and incubated at 37° C. for 3 h. Cells were washed with 200 μl Hank's buffered salt solution (Mediatech) and incubated with 200 μl RPMI (without phenol red) containing 10% AlamarBlue® (also known as Resazurin, Invitrogen, Grand Island, N.Y.). Following 8 h incubation at 37° C., the absorbance was measured at 570 nm and 600 nm using a PowerWave XS plate reader, and the metabolic activity of the cells (as a percentage of untreated controls) was calculated using the following formula provided by the manufacturer: (117,216×A570−80,586×A600)/(117,216×A′570−80,586×A′600)×100, where A is the absorbance of test wells, and A′ is the absorbance of positive control wells (mock-infection).
A general note: Resazurin is reduced to fluorescent resorufin, in cell work by metabolically active cells.

Data set [3] has as its system human epithelial cells (HeLa). Description: Alamar Blue [resazurin] metabolic activity of tissue culture cells used in invasion assays. In kind it is cell-based. The source says:
We expect that Compound 1 can impact host cell interaction but have little or no effect on growth rate of Shigella, based on our results with non-pathogenic E. coli strains.

Data set [4] has as its target VirF (Shigella flexneri, UniProt P0A2T1). Description: % Inhibition at 82.5 μM, VirF. It is filed as cell-based. The conditions noted are these: 82.5 μM.

T1 sequence (P0ACJ8 2-210): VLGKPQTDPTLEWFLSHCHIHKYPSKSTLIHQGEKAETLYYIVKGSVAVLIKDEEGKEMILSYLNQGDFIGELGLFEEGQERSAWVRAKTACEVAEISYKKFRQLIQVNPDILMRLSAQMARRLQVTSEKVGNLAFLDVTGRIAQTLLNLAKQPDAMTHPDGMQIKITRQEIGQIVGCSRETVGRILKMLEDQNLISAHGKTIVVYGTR
Chain of VirF (P0A2T1 whole entry): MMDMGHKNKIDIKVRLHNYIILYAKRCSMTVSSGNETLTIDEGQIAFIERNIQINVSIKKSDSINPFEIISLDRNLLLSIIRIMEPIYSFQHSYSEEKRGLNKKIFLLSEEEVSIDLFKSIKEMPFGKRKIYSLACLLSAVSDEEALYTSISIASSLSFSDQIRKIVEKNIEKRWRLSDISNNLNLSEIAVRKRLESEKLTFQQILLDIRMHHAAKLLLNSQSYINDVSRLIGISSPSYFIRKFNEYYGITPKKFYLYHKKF

For orientation: % Inhibition means the relative decrease from the control value, in per cent. A high value points to a strong effect. Take `CCCCN1C=C(c2ccc3ccccc3n2)C(C[N+](=O)[O-])c2ccccc21` (centres unmarked) [Compound 1, 1-butyl-4-(nitromethyl)-3-quinolin-2-yl-4H-quinoline]: in data set [1], the “CRP DNA binding retained” value is reported as “approximately 94%”. In addition, in data set [2] (40 μM SE-1), the host cell viability result is “no effect”. For the same compound, the “viability of L-929 cells” value in data set [2] (0.2 and 0.4 μM SE-1) was “did not detectably decrease the viability”. In data set [3], the “metabolic activity of the tissue culture cells” value was “did not have any effect”. For the same compound, in data set [4], the “% Inhibition at 82.5 μM VirF” value was determined as 100%.
